Square brackets hold non-standard residues; d marks the D form. Peptide text beside a SMILES is read from it. * marks the point of attachment. Fluorescein(5-NHCOCH2) = O=C(C*)Nc1ccc2c(c1)C(=O)OC21c2ccc(O)cc2Oc2cc(O)ccc21; pS = N[C@@H](COP(=O)(O)O)C(=O)O; Sar = CNCC(=O)O
Molecular target: T1, CBP KIX wild type (Mus musculus, UniProt P45481)
T1 construct: made in house; host or cells: E. coli BL21(DE3) pArg
Assay: Equilibrium fluorescence polarization, wild type CBP KIX
Assay type: binding
Settings: 25° C.

T1 sequence (P45481 586-665 limits assumed): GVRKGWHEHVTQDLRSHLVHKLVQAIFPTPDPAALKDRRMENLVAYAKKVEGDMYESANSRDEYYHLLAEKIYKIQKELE

`CC[C@H](C)[C@H](NC(=O)[C@H](Cc1ccc(O)cc1)NC(=O)[C@H](C)NC(=O)[C@H](Cc1ccccc1)NC(=O)[C@H](COP(=O)(O)O)NC(=O)[C@H](CC(C)C)NC(=O)[C@H](CCCNC(=N)N)NC(=O)[C@H](CCCNC(=N)N)NC(=O)[C@@H](NC(=O)[C@@H]1CCCN1C(=O)[C@H](C)NC(=O)[C@H](CC(=O)O)NC(=O)[C@H](CC(=O)O)NC(=O)CNC(=O)[C@@H]1CCCN1C(=O)[C@H](Cc1ccc(O)cc1)NC(=O)[C@@H](NC(=O)[C@@H]1CCCN1C(=O)[C@H](CCC(N)=O)NC(=O)[C@H](CO)NC(=O)[C@@H]1CCCN1C(=O)CN)[C@@H](C)O)C(C)C)C(=O)N[C@@H](CC(C)C)C(=O)N[C@@H](CC(C)C)C(=O)N[C@@H](CC(=O)O)C(=O)N[C@@H](CC(C)C)C(=O)N[C@@H](Cc1ccc(O)cc1)C(=O)N[C@@H](CC(C)C)C(=O)N[C@@H](CC(=O)O)C(=O)N[C@@H](C)C(=O)N1CCC[C@H]1C(=O)NCC(=O)N[C@H](C(=O)N[C@@H](CSCC(=O)Nc1ccc2c(c1)C(=O)OC21c2ccc(O)cc2Oc2cc(O)ccc21)C(N)=O)C(C)C` [F20A] (H-GPSQPTYPGDDAPVRRL[pS]FAYILLDLYLDAPGVC(Fluorescein(5-NHCOCH2))-NH2) gave a Kd of 2550 ± 250 nM.
Work on `CC[C@H](C)[C@H](NC(=O)[C@H](Cc1ccc(O)cc1)NC(=O)[C@H](Cc1ccccc1)NC(=O)[C@H](Cc1ccccc1)NC(=O)[C@H](COP(=O)(O)O)NC(=O)[C@H](C)NC(=O)[C@H](CCCNC(=N)N)NC(=O)[C@H](CCCNC(=N)N)NC(=O)[C@@H](NC(=O)[C@@H]1CCCN1C(=O)[C@H](C)NC(=O)[C@H](CC(=O)O)NC(=O)[C@H](CC(=O)O)NC(=O)CNC(=O)[C@@H]1CCCN1C(=O)[C@H](Cc1ccc(O)cc1)NC(=O)[C@@H](NC(=O)[C@@H]1CCCN1C(=O)[C@H](CCC(N)=O)NC(=O)[C@H](CO)NC(=O)[C@@H]1CCCN1C(=O)CN)[C@@H](C)O)C(C)C)C(=O)N[C@@H](CC(C)C)C(=O)N[C@@H](CC(C)C)C(=O)N[C@@H](CC(=O)O)C(=O)N[C@@H](CC(C)C)C(=O)N[C@@H](Cc1ccc(O)cc1)C(=O)N[C@@H](CC(C)C)C(=O)N[C@@H](CC(=O)O)C(=O)N[C@@H](C)C(=O)N1CCC[C@H]1C(=O)NCC(=O)N[C@H](C(=O)N[C@@H](CSCC(=O)Nc1ccc2c(c1)C(=O)OC21c2ccc(O)cc2Oc2cc(O)ccc21)C(N)=O)C(C)C` [L17A] (H-GPSQPTYPGDDAPVRRA[pS]FFYILLDLYLDAPGVC(Fluorescein(5-NHCOCH2))-NH2) yielded a Kd of 680 ± 50 nM.
In the case of `CC[C@H](C)[C@H](NC(=O)[C@H](Cc1ccc(O)cc1)NC(=O)[C@H](Cc1ccccc1)NC(=O)[C@H](Cc1ccccc1)NC(=O)[C@H](COP(=O)(O)O)NC(=O)[C@H](CC(C)C)NC(=O)[C@H](CCCNC(=N)N)NC(=O)[C@H](CCCNC(=N)N)NC(=O)[C@@H](NC(=O)[C@@H]1CCCN1C(=O)[C@H](C)NC(=O)[C@H](CC(=O)O)NC(=O)[C@H](CC(=O)O)NC(=O)CNC(=O)[C@@H]1CCCN1C(=O)[C@H](Cc1ccc(O)cc1)NC(=O)[C@@H](NC(=O)[C@@H]1CCCN1C(=O)[C@H](CCC(N)=O)NC(=O)[C@H](CO)NC(=O)[C@@H]1CCCN1C(=O)CN)[C@@H](C)O)C(C)C)C(=O)N[C@@H](CC(C)C)C(=O)N[C@@H](C)C(=O)N[C@@H](CC(=O)O)C(=O)N[C@@H](CC(C)C)C(=O)N[C@@H](Cc1ccc(O)cc1)C(=O)N[C@@H](CC(C)C)C(=O)N[C@@H](CC(=O)O)C(=O)N[C@@H](C)C(=O)N1CCC[C@H]1C(=O)NCC(=O)N[C@H](C(=O)N[C@@H](CSCC(=O)Nc1ccc2c(c1)C(=O)OC21c2ccc(O)cc2Oc2cc(O)ccc21)C(N)=O)C(C)C` [L24A] (H-GPSQPTYPGDDAPVRRL[pS]FFYILADLYLDAPGVC(Fluorescein(5-NHCOCH2))-NH2), the Kd is reported as 1160 ± 70 nM.
Compound `CC[C@H](C)[C@H](NC(=O)[C@H](Cc1ccc(O)cc1)NC(=O)[C@H](Cc1ccccc1)NC(=O)[C@H](Cc1ccccc1)NC(=O)[C@H](COP(=O)(O)O)NC(=O)[C@H](CC(C)C)NC(=O)[C@H](CCCNC(=N)N)NC(=O)[C@H](CCCNC(=N)N)NC(=O)[C@@H](NC(=O)[C@@H]1CCCN1C(=O)[C@H](C)NC(=O)[C@H](CC(=O)O)NC(=O)[C@H](CC(=O)O)NC(=O)CNC(=O)[C@@H]1CCCN1C(=O)[C@H](Cc1ccc(O)cc1)NC(=O)[C@@H](NC(=O)[C@@H]1CCCN1C(=O)[C@H](CCC(N)=O)NC(=O)[C@H](CO)NC(=O)[C@@H]1CCCN1C(=O)CN)[C@@H](C)O)C(C)C)C(=O)N[C@@H](CC(C)C)C(=O)N[C@@H](CC(C)C)C(=O)N[C@@H](CC(=O)O)C(=O)N[C@@H](CC(C)C)C(=O)N[C@@H](Cc1ccc(O)cc1)C(=O)N[C@@H](C)C(=O)N[C@@H](CC(=O)O)C(=O)N[C@@H](C)C(=O)N1CCC[C@H]1C(=O)NCC(=O)N[C@H](C(=O)N[C@@H](CSCC(=O)Nc1ccc2c(c1)C(=O)OC21c2ccc(O)cc2Oc2cc(O)ccc21)C(N)=O)C(C)C` [L28A] (H-GPSQPTYPGDDAPVRRL[pS]FFYILLDLYADAPGVC(Fluorescein(5-NHCOCH2))-NH2) has a Kd of 830 ± 110 nM.
For `CC[C@H](C)[C@H](NC(=O)[C@H](Cc1ccc(O)cc1)NC(=O)[C@H](Cc1ccccc1)NC(=O)[C@H](Cc1ccccc1)NC(=O)[C@H](COP(=O)(O)O)NC(=O)[C@H](CC(C)C)NC(=O)[C@H](CCCNC(=N)N)NC(=O)[C@H](CCCNC(=N)N)NC(=O)[C@@H](NC(=O)[C@@H]1CCCN1C(=O)[C@H](C)NC(=O)[C@H](CC(=O)O)NC(=O)[C@H](CC(=O)O)NC(=O)CNC(=O)[C@@H]1CCCN1C(=O)[C@H](Cc1ccc(O)cc1)NC(=O)[C@@H](NC(=O)[C@@H]1CCCN1C(=O)[C@H](CCC(N)=O)NC(=O)[C@H](CO)NC(=O)[C@H](C)NC(=O)CN)[C@@H](C)O)C(C)C)C(=O)N[C@@H](CC(C)C)C(=O)N[C@@H](CC(C)C)C(=O)N[C@@H](CC(=O)O)C(=O)N[C@@H](CC(C)C)C(=O)N[C@@H](Cc1ccc(O)cc1)C(=O)N[C@@H](CC(C)C)C(=O)N[C@@H](CC(=O)O)C(=O)N[C@@H](C)C(=O)N1CCC[C@H]1C(=O)NCC(=O)N[C@H](C(=O)N[C@@H](CSCC(=O)Nc1ccc2c(c1)C(=O)OC21c2ccc(O)cc2Oc2cc(O)ccc21)C(N)=O)C(C)C` [P2A] (H-GASQPTYPGDDAPVRRL[pS]FFYILLDLYLDAPGVC(Fluorescein(5-NHCOCH2))-NH2), the Kd was 870 ± 40 nM.
In the case of `CC[C@H](C)[C@H](NC(=O)[C@H](Cc1ccc(O)cc1)NC(=O)[C@H](Cc1ccccc1)NC(=O)[C@H](Cc1ccccc1)NC(=O)[C@H](COP(=O)(O)O)NC(=O)[C@H](CC(C)C)NC(=O)[C@H](CCCNC(=N)N)NC(=O)[C@H](CCCNC(=N)N)NC(=O)[C@@H](NC(=O)[C@@H]1CCCN1C(=O)[C@H](C)NC(=O)[C@H](CC(=O)O)NC(=O)[C@H](CC(=O)O)NC(=O)CNC(=O)[C@@H]1CCCN1C(=O)[C@H](Cc1ccc(O)cc1)NC(=O)[C@@H](NC(=O)[C@@H]1CCCN1C(=O)[C@H](CCC(N)=O)NC(=O)[C@H](CO)NC(=O)CN(C)C(=O)CN)[C@@H](C)O)C(C)C)C(=O)N[C@@H](CC(C)C)C(=O)N[C@@H](CC(C)C)C(=O)N[C@@H](CC(=O)O)C(=O)N[C@@H](CC(C)C)C(=O)N[C@@H](Cc1ccc(O)cc1)C(=O)N[C@@H](CC(C)C)C(=O)N[C@@H](CC(=O)O)C(=O)N[C@@H](C)C(=O)N1CCC[C@H]1C(=O)NCC(=O)N[C@H](C(=O)N[C@@H](CSCC(=O)Nc1ccc2c(c1)C(=O)OC21c2ccc(O)cc2Oc2cc(O)ccc21)C(N)=O)C(C)C` [P2Z] (H-G[Sar]SQPTYPGDDAPVRRL[pS]FFYILLDLYLDAPGVC(Fluorescein(5-NHCOCH2))-NH2), the Kd is reported as 830 ± 80 nM.
Work on `CC[C@H](C)[C@H](NC(=O)[C@H](Cc1ccc(O)cc1)NC(=O)[C@H](Cc1ccccc1)NC(=O)[C@H](Cc1ccccc1)NC(=O)[C@H](COP(=O)(O)O)NC(=O)[C@H](CC(C)C)NC(=O)[C@H](CCCNC(=N)N)NC(=O)[C@H](CCCNC(=N)N)NC(=O)[C@@H](NC(=O)[C@@H]1CCCN1C(=O)[C@H](C)NC(=O)[C@H](CC(=O)O)NC(=O)[C@H](CC(=O)O)NC(=O)CNC(=O)[C@@H]1CCCN1C(=O)[C@H](Cc1ccc(O)cc1)NC(=O)[C@@H](NC(=O)[C@H](C)NC(=O)[C@H](CCC(N)=O)NC(=O)[C@H](CO)NC(=O)[C@@H]1CCCN1C(=O)CN)[C@@H](C)O)C(C)C)C(=O)N[C@@H](CC(C)C)C(=O)N[C@@H](CC(C)C)C(=O)N[C@@H](CC(=O)O)C(=O)N[C@@H](CC(C)C)C(=O)N[C@@H](Cc1ccc(O)cc1)C(=O)N[C@@H](CC(C)C)C(=O)N[C@@H](CC(=O)O)C(=O)N[C@@H](C)C(=O)N1CCC[C@H]1C(=O)NCC(=O)N[C@H](C(=O)N[C@@H](CSCC(=O)Nc1ccc2c(c1)C(=O)OC21c2ccc(O)cc2Oc2cc(O)ccc21)C(N)=O)C(C)C` [P5A] (H-GPSQATYPGDDAPVRRL[pS]FFYILLDLYLDAPGVC(Fluorescein(5-NHCOCH2))-NH2) yielded a Kd of 1020 ± 90 nM.
`CC[C@H](C)[C@H](NC(=O)[C@H](Cc1ccc(O)cc1)NC(=O)[C@H](Cc1ccccc1)NC(=O)[C@H](Cc1ccccc1)NC(=O)[C@H](COP(=O)(O)O)NC(=O)[C@H](CC(C)C)NC(=O)[C@H](CCCNC(=N)N)NC(=O)[C@H](CCCNC(=N)N)NC(=O)[C@@H](NC(=O)[C@@H]1CCCN1C(=O)[C@H](C)NC(=O)[C@H](CC(=O)O)NC(=O)[C@H](CC(=O)O)NC(=O)CNC(=O)[C@@H]1CCCN1C(=O)[C@H](Cc1ccc(O)cc1)NC(=O)[C@@H](NC(=O)CN(C)C(=O)[C@H](CCC(N)=O)NC(=O)[C@H](CO)NC(=O)[C@@H]1CCCN1C(=O)CN)[C@@H](C)O)C(C)C)C(=O)N[C@@H](CC(C)C)C(=O)N[C@@H](CC(C)C)C(=O)N[C@@H](CC(=O)O)C(=O)N[C@@H](CC(C)C)C(=O)N[C@@H](Cc1ccc(O)cc1)C(=O)N[C@@H](CC(C)C)C(=O)N[C@@H](CC(=O)O)C(=O)N[C@@H](C)C(=O)N1CCC[C@H]1C(=O)NCC(=O)N[C@H](C(=O)N[C@@H](CSCC(=O)Nc1ccc2c(c1)C(=O)OC21c2ccc(O)cc2Oc2cc(O)ccc21)C(N)=O)C(C)C` [P5Z] (H-GPSQ[Sar]TYPGDDAPVRRL[pS]FFYILLDLYLDAPGVC(Fluorescein(5-NHCOCH2))-NH2) gave a Kd of 800 ± 30 nM.

— patent publication US20110028686A1, “Protein binding miniature proteins” (Yale University, priority 2000, published 2011)
